How the values were obtained:
[1] = test system: maternal sera (antibodies); assay: ELISA peptide-binding of maternal sera (Example 6); set-up: species or system human
Outline: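 Third-trimester maternal sera, from HIV-1 transmitting and non-transmitting mothers, were tested by ELISA against ~16-residue peptides spanning HIV-1 external and transmembrane glycoproteins. Each serum was run with at least 40 peptides, and values are the percentage of sera binding each peptide.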

[2] = test system: maternal HIV+ sera (antibodies); assay: RIA / ELISA binding of maternal HIV+ sera to gp120 and gp41 peptides (Example 3); set-up: species or system human
Outline: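 Peptides were coated at 10 μg/ml in carbonate buffer pH 9.6 and blocked with 1% BSA. Sera at 1:50 and 1:500 were incubated overnight at 4°C and detected with ¹²⁵I anti-human IgG (RIA) or HRP/TMB at OD450 (ELISA). Specific binding was taken as peptide minus no-peptide wells, scored as a ratio to normal human serum.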

SSGRMIMEKGEIKNCSFNIST [Peptide 59]
Number of Non-Transmitters which bound to peptide ([1]; Non-Transmitters, N = 12): 0 | Percent of Non-Transmitters which bound to peptide ([1]; Non-Transmitters, N = 12): 0% | Number of Transmitters which bound to peptide ([1]; Transmitters, N = 4): 0 | Percent of Transmitters which bound to peptide ([1]; Transmitters, N = 4): 0% | Binding of maternal sera to peptide (in words) ([2]; Example 3): No binding | Binding of maternal HIV+ serum to peptide (sera/NHS ratio) ([2]; Serum No. 1, Non-Transmission Group): - (specific OD450 or cpm of sera sample binding to peptide divided by the specific OD450 or cpm of NHS sample binding to peptide, which value is less than 2) | Binding of maternal HIV+ serum to peptide (sera/NHS ratio) ([2]; Serum No. 2, Non-Transmission Group): - (specific OD450 or cpm of sera sample binding to peptide divided by the specific OD450 or cpm of NHS sample binding to peptide, which value is less than 2) | Binding of maternal HIV+ serum to peptide (sera/NHS ratio) ([2]; Serum No. 3, Non-Transmission Group): - (specific OD450 or cpm of sera sample binding to peptide divided by the specific OD450 or cpm of NHS sample binding to peptide, which value is less than 2) | Binding of maternal HIV+ serum to peptide (sera/NHS ratio) ([2]; Serum No. 4, Transmission Group): - (specific OD450 or cpm of sera sample binding to peptide divided by the specific OD450 or cpm of NHS sample binding to peptide, which value is less than 2) | Binding of maternal HIV+ serum to peptide (sera/NHS ratio) ([2]; Serum No. 5, Transmission Group): - (specific OD450 or cpm of sera sample binding to peptide divided by the specific OD450 or cpm of NHS sample binding to peptide, which value is less than 2) | Binding of maternal HIV+ serum to peptide (sera/NHS ratio) ([2]; Serum No. 6, Non-Transmission Group): - (specific OD450 or cpm of sera sample binding to peptide divided by the specific OD450 or cpm of NHS sample binding to peptide, which value is less than 2) | Binding of maternal HIV+ serum to peptide (sera/NHS ratio) ([2]; Serum No. 7, Non-Transmission Group): - (specific OD450 or cpm of sera sample binding to peptide divided by the specific OD450 or cpm of NHS sample binding to peptide, which value is less than 2) | Binding of maternal HIV+ serum to peptide (sera/NHS ratio) ([2]; Serum No. 8, Non-Transmission Group): - (specific OD450 or cpm of sera sample binding to peptide divided by the specific OD450 or cpm of NHS sample binding to peptide, which value is less than 2) | Binding of maternal HIV+ serum to peptide (sera/NHS ratio) ([2]; Serum No. 9, Non-Transmission Group): - (specific OD450 or cpm of sera sample binding to peptide divided by the specific OD450 or cpm of NHS sample binding to peptide, which value is less than 2) | Binding of maternal HIV+ serum to peptide (sera/NHS ratio) ([2]; Serum No. 10, Transmission Group): - (specific OD450 or cpm of sera sample binding to peptide divided by the specific OD450 or cpm of NHS sample binding to peptide, which value is less than 2) | Binding of maternal HIV+ serum to peptide (sera/NHS ratio) ([2]; Serum No. 11, Non-Transmission Group): - (specific OD450 or cpm of sera sample binding to peptide divided by the specific OD450 or cpm of NHS sample binding to peptide, which value is less than 2) | Binding of maternal HIV+ serum to peptide (sera/NHS ratio) ([2]; Serum No. 12, Non-Transmission Group): - (specific OD450 or cpm of sera sample binding to peptide divided by the specific OD450 or cpm of NHS sample binding to peptide, which value is less than 2) | Binding of maternal HIV+ serum to peptide (sera/NHS ratio) ([2]; Serum No. 13, Transmission Group): - (specific OD450 or cpm of sera sample binding to peptide divided by the specific OD450 or cpm of NHS sample binding to peptide, which value is less than 2) | Binding of maternal HIV+ serum to peptide (sera/NHS ratio) ([2]; Serum No. 14, Transmission Group): - (specific OD450 or cpm of sera sample binding to peptide divided by the specific OD450 or cpm of NHS sample binding to peptide, which value is less than 2) | Binding of maternal HIV+ serum to peptide (sera/NHS ratio) ([2]; Serum No. 15, Transmission Group): - (specific OD450 or cpm of sera sample binding to peptide divided by the specific OD450 or cpm of NHS sample binding to peptide, which value is less than 2) | Binding of maternal HIV+ serum to peptide (sera/NHS ratio) ([2]; Serum No. 16, Non-Transmission Group): - (specific OD450 or cpm of sera sample binding to peptide divided by the specific OD450 or cpm of NHS sample binding to peptide, which value is less than 2) | Binding of maternal HIV+ serum to peptide (sera/NHS ratio) ([2]; Serum No. 17, Non-Transmission Group): - (specific OD450 or cpm of sera sample binding to peptide divided by the specific OD450 or cpm of NHS sample binding to peptide, which value is less than 2) | Binding of maternal HIV+ serum to peptide (sera/NHS ratio) ([2]; Serum No. 18, Non-Transmission Group): - (specific OD450 or cpm of sera sample binding to peptide divided by the specific OD450 or cpm of NHS sample binding to peptide, which value is less than 2) | Binding of maternal HIV+ serum to peptide (sera/NHS ratio) ([2]; Serum No. 19, Transmission Group): - (specific OD450 or cpm of sera sample binding to peptide divided by the specific OD450 or cpm of NHS sample binding to peptide, which value is less than 2) | Binding of maternal HIV+ serum to peptide (sera/NHS ratio) ([2]; Serum No. 20, Non-Transmission Group): - (specific OD450 or cpm of sera sample binding to peptide divided by the specific OD450 or cpm of NHS sample binding to peptide, which value is less than 2)

Reference: patent US5556744A, “Methods and compositions for diagnosing and treating certain HIV infected patients” (The Trustees of the University of Pennsylvania, priority 1994, dated 1996)
